Data as given in PMC9921161, “Antihyaluronidase and Antioxidant Potential of Atriplex sagittata Borkh. in Relation to Phenolic Compounds and Triterpene Saponins” (Molecules, 2023).

Biological target: Hyaluronidase from bovine testes type I-S (Bos taurus, UniProt Q2YDK3)
Assay: Antihyaluronidase activity, spectrophotometric (turbidimetric CTAB) method
Type: biochemical
Settings: for IC50 hyaluronidase inhibition: pH 4.5, 37 °C
Procedure: Antihyaluronidase activity was determined using a spectrophotometric method described previously. Briefly, extracts after evaporation of methanol were dissolved in DMSO (at concentrations of 0.01–1 mg/mL) and were pre-incubated (10 min, 37 °C) in the presence of the hyaluronidase enzyme (25 µL Hyal, 30 U/mL) and incubation buffer (25 µL, acetate buffer, pH 4.5, […], 0.5 mg/mL albumin). The same procedure was applied to isolated compounds (at concentrations 0.005–1 mg/mL). Next, a solution of hyaluronic acid (25 µL HA, 0.3 mg/mL) was added to the reaction mixtures and the samples were incubated (45 min, 37 °C). After incubation, CTAB (200 µL of 2.5%) solution was added to the reaction mixtures. The inhibitory effect of the tested extracts and saponins on the enzyme activity was determined on the basis of the measurement of the absorbance of the precipitated nonhydrolyzed hyaluronic acid. The study was carried out using a multipurpose plate reader (Synergy HT BioTek, Winooski, VT, USA) at a wavelength of 600 nm. Antihyaluronidase activity was expressed as % enzyme inhibition, as previously described. Quercetin and escin were used as positive controls in the range of concentrations (10–1000 µg/mL corresponding to the analyzed substances (see Table 4).

[1] = read-out: Hyaluronidase Inhibition [%]

Chain of Hyaluronidase from bovine testes type I-S (Q2YDK3 entry or part of it): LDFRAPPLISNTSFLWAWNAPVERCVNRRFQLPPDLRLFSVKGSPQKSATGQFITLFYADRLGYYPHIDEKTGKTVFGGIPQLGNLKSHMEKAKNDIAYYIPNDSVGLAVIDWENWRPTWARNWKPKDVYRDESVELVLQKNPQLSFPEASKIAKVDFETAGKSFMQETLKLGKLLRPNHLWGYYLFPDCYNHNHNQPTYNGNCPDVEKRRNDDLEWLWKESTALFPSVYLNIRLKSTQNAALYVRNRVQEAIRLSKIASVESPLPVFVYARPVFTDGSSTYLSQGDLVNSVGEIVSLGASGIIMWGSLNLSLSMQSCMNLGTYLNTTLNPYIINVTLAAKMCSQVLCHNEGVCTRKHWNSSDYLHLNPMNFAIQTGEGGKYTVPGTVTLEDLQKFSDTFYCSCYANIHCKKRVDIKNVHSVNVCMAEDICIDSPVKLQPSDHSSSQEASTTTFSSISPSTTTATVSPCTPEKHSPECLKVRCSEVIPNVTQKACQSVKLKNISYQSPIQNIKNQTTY

Compound | IC50 hyaluronidase inhibition | inhibition at 10 µg/mL [1] | inhibition at 20 µg/mL [1] | inhibition at 50 µg/mL [1] | inhibition at 100 µg/mL [1] | inhibition at 200 µg/mL [1] | inhibition at 300 µg/mL [1] | inhibition at 500 µg/mL [1] | inhibition at 700 µg/mL [1] | inhibition at 1000 µg/mL [1]
O=c1c(O)c(-c2ccc(O)c(O)c2)oc2cc(O)cc(O)c12 [quercetin] | 514.28 µg/mL | 0.61 ± 0.53% | 0.62 ± 0.54% | 1.24 ± 0.99% | 4.39 ± 0.88% | 13.9 ± 2.7% | 21.9 ± 4.04% | 38.8 ± 1.33% | 80.56 ± 0.49% | 91.1 ± 1.5%
escin | 307.38 µg/mL |  |  |  |  |  |  |  |  | 
